According to patent US8563714B2, “Bridged spiro [2.4] heptane derivatives as ALX receptor and/or FPRL2 agonists” (Actelion Pharmaceuticals Ltd., priority 2009, dated 2013):

Key:
human ALX receptor = target: T1, human ALX receptor (Homo sapiens, UniProt P25090); assay: Intracellular calcium measurements (FLIPR), agonistic activity in HEK293-hALXR-Gα16 cells; type: cell-based; conditions: Fluo-4 calcium FLIPR, normalized to WKYMVm 10 nM
T1 construct: expressed in transfected cells; host or cells: HEK293 (HEK293-hALXR-Gα16)
T1 sequence (P25090 1-351): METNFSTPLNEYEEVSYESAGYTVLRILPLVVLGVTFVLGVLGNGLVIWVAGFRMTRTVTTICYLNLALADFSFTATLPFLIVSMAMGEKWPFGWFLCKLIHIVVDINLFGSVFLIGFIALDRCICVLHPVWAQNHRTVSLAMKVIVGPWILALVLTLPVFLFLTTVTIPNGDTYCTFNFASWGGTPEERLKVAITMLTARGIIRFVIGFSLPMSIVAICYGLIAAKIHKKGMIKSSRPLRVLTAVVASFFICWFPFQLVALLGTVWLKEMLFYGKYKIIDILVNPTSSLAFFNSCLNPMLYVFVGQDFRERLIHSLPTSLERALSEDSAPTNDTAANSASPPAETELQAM
Procedure, shortened: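 Agonist-induced calcium flux was recorded by FLIPR (488/540 nm) in HEK293-hALXR-Gα16 cells pre-loaded with Fluo-4 AM (1 μM, 60 min, 37°C). Peak signal above baseline, after subtracting buffer addition, was expressed relative to WKYMVm at 10 nM final.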

human FPRL2 = target: T2, human FPRL2 (Homo sapiens, UniProt P25089); assay: Intracellular calcium measurements (FLIPR), agonistic activity in HEK293-hFPRL2-Gα16 cells; type: cell-based; conditions: Fluo-4 calcium FLIPR, normalized to GLY14-Humanin 100 nM
T2 construct: expressed in transfected cells; host or cells: HEK293 (HEK293-hFPRL2-Gα16)
T2 sequence (P25089 1-353): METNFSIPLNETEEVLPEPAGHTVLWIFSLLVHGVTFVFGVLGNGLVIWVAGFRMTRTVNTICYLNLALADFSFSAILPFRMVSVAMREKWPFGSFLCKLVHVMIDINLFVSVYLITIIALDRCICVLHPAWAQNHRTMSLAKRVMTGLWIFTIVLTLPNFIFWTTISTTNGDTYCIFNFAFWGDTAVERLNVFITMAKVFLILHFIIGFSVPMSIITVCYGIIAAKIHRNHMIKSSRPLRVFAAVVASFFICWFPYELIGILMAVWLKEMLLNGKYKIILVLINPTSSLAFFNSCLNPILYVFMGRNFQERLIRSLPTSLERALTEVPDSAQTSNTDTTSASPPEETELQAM
Procedure, shortened: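 Peak values after baseline subtraction are expressed relative to 100 nM Gly14-Humanin; compounds diluted in assay buffer from 10 mM DMSO stocks.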

SMILES | EC50 (human ALX receptor) | EC50 (human FPRL2)
CC(C)(C)OC(=O)N1CCCC1CNC(=O)C1C(C(=O)Nc2ccc(Br)cc2)C2C=CC1C21CC1 (mixture of isomers) [Example 79, (5R*)—N^5-(4-Bromophenyl)-(6R*)—N^6—(N-tert-butoxycarbonyl-pyrrolidin-2-yl-methyl)-(4S*,7R*)-[4,7-ethenylene-spiro[2.4]heptane]-5,6-dicarboxamide] | 96 nM | 1300 nM
CN(CCNC(=O)[C@H]1[C@H](C(=O)Nc2ccc(Br)cc2)[C@@H]2C=C[C@H]1C21CC1)C(=O)OC(C)(C)C (racemic) [Example 47, (5R*)—N^5-(4-Bromophenyl)-(6R*)—N^6-(2-(methyl-tert-butoxycarbonyl-amino)-ethyl)-(4S*,7R*)-[4,7-ethenylene-spiro[2.4]heptane]-5,6-dicarboxamide] | 12 nM | 1170 nM
O=C(NC1CC1)[C@H]1[C@H](C(=O)Nc2ccc(Br)cc2)[C@@H]2CC[C@H]1C21CC1 (racemic) [Example 106, (5R*)—N^5-(4-Bromophenyl)-(6R*)—N^6-(cyclopropyl)-(4S*,7R*)-[4,7-ethylene-spiro[2.4]heptane]-5,6-dicarboxamide] | 82 nM | 2930 nM
CN1CCN(CCCCNC(=O)[C@H]2[C@H](C(=O)Nc3ccc(Br)cc3)[C@@H]3C=C[C@H]2C32CC2)CC1 [Example 213, (5R)—N^5-(4-Bromophenyl)-(6R)—N^6-(4-(4-methyl-piperazin-1-yl)butyl)-(4S,7R)-[4,7-ethenylene-spiro[2.4]heptane]-5,6-dicarboxamide] | 4.1 nM | 16 nM
CC(C)(C)OC(=O)NCc1ccc(CNC(=O)[C@H]2[C@H](C(=O)Nc3ccc(Br)cc3)[C@@H]3C=C[C@H]2C32CC2)cc1 (racemic) [Example 97, (5R*)—N^5-(4-Bromophenyl)-(6R*)—N^6-[(4-N-tert-butoxycarbonyl-aminomethyl-phenyl)-methyl]-(4S*,7R*)-[4,7-ethenylene-spiro[2.4]heptane]-5,6-dicarboxamide] | 391 nM | 1430 nM
COC(=O)CCNC(=O)[C@H]1[C@H](C(=O)NCCCCN2CCCC2)[C@H]2C=C[C@@H]1C21CC1 (racemic) [Example 124, (5R*)—N^5-(2-Methoxycarbonyl-ethyl)-(6R*)—N^6-(4-pyrrolidin-1-yl-butyl)-(4S*,7R*)-[4,7-ethenylene-spiro[2.4]heptane]-5,6-dicarboxamide] | 52 nM | 1150 nM
O=C(NCCN1CCCC1)[C@H]1[C@H](C(=O)Nc2ccc(Br)cc2)[C@@H]2C=C[C@H]1C21CC1 (racemic) [Example 48, (5R*)—N^5-(4-Bromophenyl)-(6R*)—N^6-(2-pyrrolidin-1-yl-ethyl)-(4S*,7R*)-[4,7-ethenylene-spiro[2.4]heptane]-5,6-dicarboxamide] | 12 nM | 1380 nM

Further compounds by falling EC50 (human ALX receptor), results first:

EC50 (human ALX receptor) | EC50 (human FPRL2) | SMILES
8610 nM | 74 nM | COc1ccc(CCNC(=O)[C@H]2[C@H](C(=O)NCCCCN3CCCC3)[C@H]3C=C[C@@H]2C32CC2)cc1 (racemic) [Example 378, (5R*)—N^5-(2-(4-Methoxyphenyl)ethyl)-(6R*)—N^6-(4-pyrrolidino-butyl)-(4S*,7R*)-[4,7-ethenylene-spiro[2.4]heptane]-5,6-dicarboxamide]
8090 nM | 691 nM | CCC(CC)CNC(=O)[C@H]1[C@H](C(=O)NCCCCN2CCCC2)[C@H]2C=C[C@@H]1C21CC1 (racemic) [Example 149, (5R*)—N^5-(2-Ethyl-butyl)-(6R*)—N^6-(4-pyrrolidin-1-yl-butyl)-(4S*,7R*)-[4,7-ethenylene-spiro[2.4]heptane]-5,6-dicarboxamide]
389 nM | 308 nM | COc1ccc(CNC(=O)[C@H]2[C@H](C(=O)NCCCCN3CCCC3)[C@H]3C=C[C@@H]2C32CC2)cc1F (racemic) [Example 228, (5R*)—N^5-(3-Fluoro-4-methoxy-phenyl-methyl)-(6R*)—N^6-(4-pyrrolidin-1-yl-butyl)-(4S*,7R*)-[4,7-ethenylene-spiro[2.4]heptane]-5,6-dicarboxamide]
70 nM | 1850 nM | O=C(Nc1ccnn1-c1ccccc1)[C@H]1[C@H](C(=O)Nc2ccc(Br)cc2)[C@@H]2C=C[C@H]1C21CC1 (racemic) [Example 72, (5R*)—N^5-(4-Bromophenyl)-(6R*)—N^6-(1-phenyl-1H-pyrazol-5-yl)-(4S*,7R*)-[4,7-ethenylene-spiro[2.4]heptane]-5,6-dicarboxamide]
34 nM | 2220 nM | CCN(CC)CCNC(=O)[C@H]1[C@H](C(=O)Nc2ccc(Br)cc2)[C@@H]2C=C[C@H]1C21CC1 (racemic) [Example 66, (5R*)—N^5-(4-Bromophenyl)-(6R*)—N^6-(2-diethyl-amino-ethyl)-(4S*,7R*)-[4,7-ethenylene-spiro[2.4]heptane]-5,6-dicarboxamide]
24 nM | 200 nM | O=C(NCCCCN1CCCC1)[C@H]1[C@H](C(=O)NCc2ccc(Br)cc2F)[C@@H]2C=C[C@H]1C21CC1 (racemic) [Example 203, (5R*)—N^5-(2-Fluoro-4-bromophenyl-methyl)-(6R*)—N^6-(4-pyrrolidin-1-yl-butyl)-(4S*,7R*)-[4,7-ethenylene-spiro[2.4]heptane]-5,6-dicarboxamide]
19 nM | > 14100 nM | NCC1CCN(C(=O)[C@H]2[C@H](C(=O)Nc3ncc(Br)s3)[C@@H]3C=C[C@H]2C32CC2)CC1 [Example 325, (5R)—N^5-(5-Bromo-thiazol-2-yl)-(6R)—N^6,N^6-(3-(aminomethyl)pentane-1,5-diyl)-(4S,7R)-[4,7-ethenylene-spiro[2.4]heptane]-5,6-dicarboxamide]
5.4 nM | 3280 nM | O=C(NCCCc1nc2ccccc2[nH]1)[C@H]1[C@H](C(=O)Nc2ccc(Br)cc2)[C@@H]2C=C[C@H]1C21CC1 (racemic) [Example 32, (5R*)—N^5-(4-Bromophenyl)-(6R*)—N^6-(3-(1H-benzoimidazol-2-yl)-propyl)-(4S*,7R*)-[4,7-ethenylene-spiro[2.4]heptane]-5,6-dicarboxamide]
2.8 nM | 1690 nM | CNCCNC(=O)[C@H]1[C@H](C(=O)Nc2ccc(Br)cc2)[C@@H]2C=C[C@H]1C21CC1 (racemic) [Example 21, (5R*)—N^5-(4-Bromophenyl)-(6R*)—N^6-(2-(N-methyl-amino)-ethyl)-(4S*,7R*)-[4,7-ethenylene-spiro[2.4]heptane]-5,6-dicarboxamide]
0.94 nM | 1510 nM | O=C(Nc1ccc(Br)cc1)C1C(C(=O)NC2CCNC2)C2C=CC1C21CC1 (mixture of isomers) [Example 9, (5R*)—N^5-(4-Bromophenyl)-(6R*)—N^6-(pyrrolidin-3-yl)-(4S*,7R*)-[4,7-ethenylene-spiro[2.4]heptane]-5,6-dicarboxamide]
0.07 nM | 58 nM | O=C(NCCCCN1CCCCC1)[C@H]1[C@H](C(=O)Nc2ccc(Br)cc2)[C@@H]2C=C[C@H]1C21CC1 [Example 209, (5R)—N^5-(4-Bromophenyl)-(6R)—N^6-(4-piperidino-butyl)-(4S,7R)-[4,7-ethenylene-spiro[2.4]heptane]-5,6-dicarboxamide]
